Data from patent US20170266133A1 (priority 2014, published 2017).

Experiments:
[1] = target: human DA transporters (DAT) (Homo sapiens, UniProt Q01959); assay: dopamine uptake inhibition; assay type: biochemical
Description: (§1) Dasotraline [(1R,4S)-4-(3,4-Dichlorophenyl)-1,2,3,4-tetrahydronaphthalen-1-amine] is a novel compound with DNRI pharmacology.

[2] = target: NE transporters (NET) (Homo sapiens, UniProt P23975); assay: norepinephrine uptake inhibition; assay type: biochemical
Description: as §1

[3] = clinical; assay type: in vivo, human
Method: Upon oral administration, methylphenidate is rapidly and completely absorbed from the gastrointestinal tract. Peak concentrations occur 1 to 2 hours after dose administration. […] When methylphenidate and cocaine are administered intravenously, their pharmacokinetics are quite similar—the percentage of each drug taken up by the brain and their rates of uptake are parallel, although the clearance from the brain of cocaine is faster than that of methylphenidate. The receptor-binding affinities for cocaine and methylphenidate are similar at the dopamine transporter in the basal ganglia and the striatum. […] Thus it appears that abuse may be related to a rapid surge in dopamine levels in the striatum. […] The consequence of the slow increase in dopamine is the absence of a “high”, and the consequence of the long T1/2 is that, following daily dosing, serum concentration gradually increases to a steady state over the course of about 7 days.

[4] = tested on: adults with ADHD; assay: Phase 2 study in adults with ADHD, efficacy (ADHD RS-IV, CGI-S, WRAADDS, cognition); assay type: in vivo, human
Method: (§2) The study consisted of 3 periods including Screening, Treatment, and Washout/Follow-up, as described below. Efficacy was evaluated using the ADHD Rating Scale Version IV (ADHD RS-IV) with adult prompts. Effects on cognition were evaluated using the […]. Safety and tolerability were monitored throughout the study by collection of physical examinations, 12-lead electrocardiograms (ECG), vital signs, adverse events (AEs), hematology, blood chemistry, urinalysis, Insomnia Severity Index (ISI), and Columbia-Suicide Severity Rating Scale (C-SSRS).
(§3) Subjects self-administered the study drug at home on Days 1 through 28, at approximately the same time each night. After Day 1 subjects returned to the clinic on Days 8, 15, 22, and 29. Beginning at Day 1 and at every visit during the treatment period, the ADHD RS-IV, Wender-Reimherr Adult Attention Deficit Disorder Scale (WRAADDS), and clinical global impression—severity (CGI-S) were completed. The clinical data repository system was administered at Baseline, and Days 15 and 29.
(§4) At Days 36 and 43, subjects returned to the clinic and the ADHD RS-IV, WRAADDS, and CGI-S were completed. The clinical data repository system was completed on Day 43.

[5] = tested on: adults with ADHD; assay type: in vivo, human
Method: as §2, §3, §4

[6] = clinical; assay type: in vivo, human; details: for steady-state concentration: predicted for longer-term administration from weeks 1-4
Method: as §2, §3, §4
From the measurements of serum concentration at 1, 2, 3, and 4 weeks, one can graph a predicted serum concentration on longer-term administration.

[7] = target: T1, DAT sites (Homo sapiens, UniProt Q01959); assay: DAT site occupancy versus serum concentration (other studies, not shown); details: in vivo
T1 construct: from tissue; host or cells: in vivo occupancy

[8] = tested on: norepinephrine transporters; assay: circulating DHPG levels; assay type: in vivo, human; details: 8 mg/d
[9] = tested on: healthy recreational stimulant users; assay: single-dose crossover abuse potential study in recreational stimulant users; assay type: in vivo, human
Description: A single-dose, randomized, double-blind, double-dummy, placebo- and active-controlled crossover study with 6 treatment visits per subject was undertaken. […] Subjects participated in a medical screening visit (Visit 1), one 4-day inpatient qualification phase (Visit 2), a treatment phase (Visits 3 to 8) consisting of six 5-day inpatient treatment visits, and a safety follow-up visit (Visit 9). Within 21 days of the screening visit, subjects were enrolled and attended a qualification phase in which they received either 60 mg methylphenidate or matching placebo in a randomized double-blind crossover manner. Dosing times were separated by approximately 24 hours to ensure that subjects could discriminate and show positive effects of the positive control.
Healthy female and male subjects aged 18 to 55 years (inclusive), who were recreational central nervous system (CNS) stimulant users with cocaine experience and who had passed the methylphenidate qualification phase, were randomized into the treatment.
Drug administration occurred on Day 1 of each treatment visit followed by pharmacodynamic (PD), pharmacokinetic (PK), and safety assessments conducted for up to 72 hours post-dose. […] Subjects were randomized to one of 6 treatment sequences according to a 6×6 William square design. The capsules received at each treatment visit (Visits 3 to 8) were identical. Serial pharmacodynamic and pharmacokinetic evaluations were taken at each treatment visit. pharmacokinetic analysis was performed for dasotraline. Safety monitoring included regular assessments of vital signs, clinical laboratory tests, and adverse events (AEs), as well as continuous telemetry monitoring for at least 12 hours post-dose. Treatment visits were separated by a washout interval of at least 21 days (from the day of dosing). Subjects returned for the safety follow-up visit within approximately 14 days following the end of the last treatment visit.

[10] = clinical; details: human, in vivo, 8 mg
[11] = cited from earlier work
[12] = 8 mg once daily, all assessment weeks
[13] = methylphenidate 40 mg and 80 mg, single dose

Sequence of NE transporters (NET) (P23975 whole entry): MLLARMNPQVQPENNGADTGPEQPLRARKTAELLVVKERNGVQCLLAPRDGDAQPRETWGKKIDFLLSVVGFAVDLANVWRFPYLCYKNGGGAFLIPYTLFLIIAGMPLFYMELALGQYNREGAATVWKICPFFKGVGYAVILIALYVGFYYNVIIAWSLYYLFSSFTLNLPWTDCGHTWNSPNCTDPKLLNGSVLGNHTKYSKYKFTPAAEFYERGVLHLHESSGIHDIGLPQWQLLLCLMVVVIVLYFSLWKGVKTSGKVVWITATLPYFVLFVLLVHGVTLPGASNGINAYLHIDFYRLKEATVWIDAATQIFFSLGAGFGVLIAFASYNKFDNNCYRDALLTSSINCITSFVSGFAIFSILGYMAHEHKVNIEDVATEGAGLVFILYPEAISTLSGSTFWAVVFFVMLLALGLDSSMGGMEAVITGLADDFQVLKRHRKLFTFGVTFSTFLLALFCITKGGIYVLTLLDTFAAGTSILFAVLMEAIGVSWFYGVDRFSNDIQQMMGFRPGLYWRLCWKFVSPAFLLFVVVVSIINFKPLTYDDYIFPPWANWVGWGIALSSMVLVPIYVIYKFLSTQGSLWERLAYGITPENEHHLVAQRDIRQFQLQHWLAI
T1 sequence (Q01959 whole entry): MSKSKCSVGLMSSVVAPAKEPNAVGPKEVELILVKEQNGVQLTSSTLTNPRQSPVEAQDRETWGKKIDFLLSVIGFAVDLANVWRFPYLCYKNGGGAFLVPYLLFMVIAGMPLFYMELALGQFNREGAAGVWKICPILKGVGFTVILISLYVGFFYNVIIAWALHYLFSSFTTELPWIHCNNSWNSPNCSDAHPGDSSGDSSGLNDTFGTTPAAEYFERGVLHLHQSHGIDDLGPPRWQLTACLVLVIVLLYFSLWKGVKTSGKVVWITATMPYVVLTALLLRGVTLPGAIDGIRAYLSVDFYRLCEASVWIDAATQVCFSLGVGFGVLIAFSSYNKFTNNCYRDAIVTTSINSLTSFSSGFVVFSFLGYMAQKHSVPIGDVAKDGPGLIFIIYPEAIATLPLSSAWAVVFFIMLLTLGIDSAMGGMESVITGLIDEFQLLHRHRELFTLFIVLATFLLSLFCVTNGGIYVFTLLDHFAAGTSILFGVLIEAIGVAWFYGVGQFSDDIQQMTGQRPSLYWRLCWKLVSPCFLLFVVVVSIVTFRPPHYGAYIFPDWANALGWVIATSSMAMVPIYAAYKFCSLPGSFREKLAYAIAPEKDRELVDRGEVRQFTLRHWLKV
Sequence of human DA transporters (DAT) (Q01959 whole entry): as above

**Q.** Which IC50 [1] does the source give for `N[C@@H]1CC[C@@H](c2ccc(Cl)c(Cl)c2)c2ccccc21` [dasotraline, (1R,4S)-4-(3,4-Dichlorophenyl)-1,2,3,4-tetrahydronaphthalen-1-amine] here?
**A.** 3 nM

**Q.** And the IC50 [2]?
**A.** 4 nM

**Q.** And the “time to steady state serum concentration” value ([3]; daily dosing)?
**A.** about 7 days

**Q.** And the Tmax ([3]; human, in vivo, po)?
**A.** 10 to 12 h

**Q.** What about the half-life ([3]; human, in vivo, read-out: serum half-life (t1/2)) of the same compound?
**A.** 47 to 77 h

**Q.** What about the “computerized cognitive assessment battery: attention, working memory, episodic memory” value ([4]; 8 mg once daily) of the same compound?
**A.** no significant main effects

**Q.** And the “Wender-Reimherr ADD total score” value ([4]; 8 mg once daily vs placebo)?
**A.** did not improve enough to achieve statistical significance

**Q.** And the “ADHD RS-IV total score, LS mean change from baseline versus placebo” value ([4]; 8 mg once daily, Week 2)?
**A.** trend to separation from placebo

**Q.** What about the “Wender-Reimherr subscore, attention difficulties component and disorganization component” value ([4]; 8 mg once daily, week 4, vs placebo) of the same compound?
**A.** statistically significant improvement

**Q.** What about the “drug misuse or diversion, Abuse Potential Monitoring Plan” value ([5]; 8 mg once daily) of the same compound?
**A.** No evidence of drug misuse or diversion

**Q.** What about the “Treatment-emergent adverse events (TEAEs)” value ([5]; 8 mg once daily, 4 weeks) of the same compound?
**A.** higher than the percentage of TEAEs in the placebo group

**Q.** And the “anxiety leading to discontinuation” value ([5]; 8 mg once daily, 4 weeks)?
**A.** 1.8%

**Q.** What about the “incidence of adverse events rated as severe” value ([5]; 8 mg once daily, 4 weeks) of the same compound?
**A.** 13.5%

**Q.** What about the “insomnia leading to discontinuation” value ([5]; 8 mg once daily, 4 weeks) of the same compound?
**A.** 10.8%

**Q.** And the “panic attack leading to discontinuation” value ([5]; 8 mg once daily, 4 weeks)?
**A.** 2.7%

**Q.** And the “Drug Effects Questionnaire mean item scores, distance from the 0-point” value [5, 12]?
**A.** ≤ 5 mm

**Q.** What about the “Drug Effects Questionnaire, drug liking” value [5, 12] of the same compound?
**A.** No evidence of drug liking

**Q.** And the “withdrawal upon discontinuation of study drug” value ([5]; after 4 weeks of 8 mg once daily)?
**A.** No signs or symptoms of withdrawal

**Q.** And the steady-state concentration ([6]; dose of 6 mg)?
**A.** about 12 ng/mL

**Q.** And the steady-state concentration ([6]; dose of 8 mg)?
**A.** about 17 ng/mL

**Q.** And the concentration at 4 weeks ([6]; human, in vivo, 8 mg once daily, by week four, read-out: serum concentration plateau)?
**A.** 15 to 20 ng/mL

**Q.** And the “serum concentration in the majority of patients” value ([6]; oral dosage form containing 6-8 mg)?
**A.** 10 to 18 ng/mL

**Q.** And the “serum concentration at 50% DAT site occupancy” value [7]?
**A.** 5 to 6 ng/mL

**Q.** And the “circulating DHPG levels” value [8]?
**A.** decreased circulating DHPG levels

**Q.** What about the “differences from placebo on pharmacodynamic endpoints” value ([9]; 16 mg single dose) of the same compound?
**A.** very few statistically significant differences from placebo

**Q.** And the “effects on most pharmacodynamic endpoints versus placebo” value ([9]; dasotraline 8, 16 and 36 mg, single dose)?
**A.** not significantly different from those of placebo

**Q.** And the Cmax [10]?
**A.** ~3 ng/mL

**Q.** What about the Tmax [10] of the same compound?
**A.** > 6 h

**Q.** What does the source list for `COC(=O)C(c1ccccc1)C1CCCCN1` (stereo not shown) [methylphenidate]?
**A.** Drug Similarity Visual Analog Scale [9, 13]: strongly identified as a stimulant; overall liking [9, 13]: “liked” by subjects overall; pharmacodynamic endpoints including Drug Liking Visual Analog Scale, versus placebo [9, 13]: significant differences compared to placebo; secondary stimulant measures [9, 13]: strong stimulant effects; pharmacokinetic half-life ([11]; in vivo): approximately 2 hours; time to peak concentrations ([11]; oral administration): 1 to 2 h
